Data as given in paper PMC4389225, “Triaminopyrimidine is a fast-killing and long-acting antimalarial clinical candidate” (Nature Communications, 2015).
Read-outs that look alike come from different tables or passages of the source.

Experiments:
[1] = 3-day rat tolerability study of compound 2; format: in vivo
Description: Protein binding (human free) […]
μM Cmax (total). Consequently, compound 2 was classified as having no therapeutic window preclinically in this model.
Rat 3 Day Toxicology Study: Male Han Wister rats (n=4) received compound 2 at dose levels of 100 or 300 mg/kg for three days (AstraZeneca, Waltham, USA).
One animal was found dead, and one considered moribund on the morning of Day 4, before

[2] = Dog plasma PK, IV and oral; format: in vivo; settings: male, Beagle; for clearance / AUC(0-inf) / AUC(0-t) / Cmax / MRT / half-life / Vd / bioavailability: dog; for half-life: read-out: t½ (converted); for Vd: read-out: Vss
Description: Pharmacokinetic studies to estimate the blood levels of compounds in dogs. PK in fasted, male Beagle dogs (n = 2 per dose) was studied after a single dose administered by intravenous infusion for 15 min (IV) or by an oral route (PO). Solution formulation containing 10% ethanol, 30% PEG 400, 60% saline was used for IV administration and a suspension in 0.5% w/v HPMC with 0.1% v/v Tween 80 was used for oral administration.
48 hours after an oral dose of 5 mg/kg. Blood samples were centrifuged and plasma samples were analyzed by LC/MS/MS. Dog PK profiles are shown in supplementary Fig. 11 and PK parameters are described in supplementary Table 9.

Dd2 PfATP4 NITD609 = assay: [3H]-hypoxanthine incorporation assay, Dd2 PfATP4 NITD609 resistant; format: cell-based; settings: Plasmodium falciparum
Description: (§1) Supplementary Table 3: Compound 9 and 12 retain their activity against Pf strains harbouring mutations to novel antimalarial agents in clinical development. Compound 9 and 12 were tested for their antiplasmodial activity against a panel of Pf strains known to harbour mutations conferring resistance to novel agents under clinical development. Parasite growth inhibition is measured using the [3H]-hypoxanthine incorporation assay. IC50s are established for each strain (n ≥2) and compared to the IC50 of Dd2 (standard pan-resistant […]

Cpd 4 Unpublished Target = assay: [3H]-hypoxanthine incorporation assay, Cpd 4 Unpublished Target resistant; format: cell-based; settings: Plasmodium falciparum
Description: as §1

Hepatocyte Clint, rat = format: in vitro ADME; settings: for Predicted blood CL: Rat
Source text: (§2) Supplementary Note 5: Prediction of human clearance for compound 12 by IVIVE.
(§3) Human clearance (CL) was predicted by in vitro-in vivo extrapolation (IVIVE) from the in vitro Clint in human hepatocytes6. In vitro Clint was scaled to in vivo Clint as follows:
(§4) Clint in vivo = Clint in vitro * scaling factors * fublood/fuinc
(§5) The liver weights used for scaling were 40, 32 and 24 g/kg body weight in rat, dog and human respectively. Hepatocellularity used for scaling was 163, 169 and 120 (X 106) cells/g liver in rat, dog and human respectively. Free fraction in blood was calculated as fuplasma /Blood:Plasma (BP) ratio. BP ratio and free fraction in the hepatocyte incubation mix, fuinc, were measured in vitro. Slope and intercept from the linear regression analysis of IVIVC for a large number of AstraZeneca compounds was applied for final correction in the scaled in vivo Clint. A well stirred model was used for CL prediction.
(§6) Where Qh is the liver blood flow. The values of Qh in rat, dog and human are 72, 55 and 20 mL.min-1kg-1 in rat, dog and human, respectively. In vitro parameters, observed in vivo CL and predicted CL are shown in supplementary Table 10. […]
(§7) (also on this page, place not known: in vivo in vivo CLintQ CLintQCL Predicted predicted predicted h h + ×=)
(§8) (1 picture or pasted object on this page, not shown here)

Blood-plasma ratio, rat = format: in vitro ADME
Source text: as §2, §3, §4, §5, §6, §7, §8

[3] = Blood-plasma ratio, human; format: in vitro ADME
Source text: as §2, §3, §4, §5, §6, §7, §8

Dd2-6R F2 C5 = assay: SYBR green growth assay, Dd2-6R F2 C5; settings: Plasmodium falciparum
Pf 3D7A = assay: in vitro parasite reduction ratio (PRR) assay; settings: after 48 h of exposure, 10 times IC50
[4] = plasma, iv, 2.1 mg/kg, IV 2.1 mg kg-1, Dog 1
[5] = plasma, iv, 2.1 mg/kg, IV 2.1 mg kg-1, Dog 2
[6] = plasma, iv, 2.1 mg/kg, IV 2.1 mg kg-1, Mean
[7] = plasma, po, 5.1 mg/kg, Oral 5.1 mg kg-1, Dog 1
[8] = plasma, po, 5.1 mg/kg, Oral 5.1 mg kg-1, Dog 2
[9] = plasma, po, 5.1 mg/kg, Oral 5.1 mg kg-1, Mean

Cc1cc(Nc2ncc(N3CCN(C)CC3)c(N3CCCC3)n2)ccn1 [compound 2]
A - Plasma Cmax Total ([1]; 100 mg/kg oral): 8.13 µM | Safety Margin (A / B) ([1]; 100 mg/kg oral): None | Summary of clinical signs and effects ([1]; 100 mg/kg oral): Non-specific toxicity | A - Plasma Cmax Total ([1]; 300 mg/kg oral): 19.18 µM | Safety Margin (A / B) ([1]; 300 mg/kg oral): None | Summary of clinical signs and effects ([1]; 300 mg/kg oral): Premature decedents

Cc1nc(Nc2ncc(N3CCN(C)[C@H](C)C3)c(Nc3cc(C)n(C)n3)n2)cc(C2CC2)c1F [compound 12, (R)-N2-(4-cyclopropyl-5-fluoro-6-methylpyridin-2-yl)-N4-(1,5-dimethyl-1H-pyrazol-3-yl)-5-(3,4-dimethylpiperazin-1-yl)pyrimidine-2,4-diamine]
clearance ([2]; blood, iv, 2.1 mg kg-1, Dog, read-out: Observed blood CL): 1.14 L/h/kg | AUC(0-inf) [2, 4]: 2.72 µM·h | AUC(0-t) [2, 4]: 2.16 µM·h | Cmax [2, 4]: 0.641 µM | MRT [2, 4]: 15.1 h | half-life [2, 4]: 11 h | AUC(0-inf) [2, 5]: 3.47 µM·h | AUC(0-t) [2, 5]: 2.68 µM·h | Cmax [2, 5]: 0.515 µM | MRT [2, 5]: 15.9 h | half-life [2, 5]: 11 h | AUC(0-inf) [2, 6]: 3.1 µM·h | AUC(0-t) [2, 6]: 2.42 µM·h | Cmax [2, 6]: 0.578 µM | MRT [2, 6]: 15.5 h | half-life [2, 6]: 11 h | clearance ([2]; plasma, iv, 2.1 mg/kg, plasma, IV 2.1 mg kg-1, Dog 1, read-out: CL): 1.65 L/h/kg | Vd ([2]; plasma, iv, 2.1 mg/kg, plasma, IV 2.1 mg kg-1, Dog 1): 24.9 L/kg | clearance ([2]; plasma, iv, 2.1 mg/kg, plasma, IV 2.1 mg kg-1, Dog 2, read-out: CL): 1.28 L/h/kg | Vd ([2]; plasma, iv, 2.1 mg/kg, plasma, IV 2.1 mg kg-1, Dog 2): 20.4 L/kg | clearance ([2]; plasma, iv, 2.1 mg/kg, plasma, IV 2.1 mg kg-1, Mean, read-out: CL): 1.46 L/h/kg | Vd ([2]; plasma, iv, 2.1 mg/kg, plasma, IV 2.1 mg kg-1, Mean): 22.7 L/kg | AUC(0-inf) [2, 7]: 5.87 µM·h | AUC(0-t) [2, 7]: 5.27 µM·h | Cmax [2, 7]: 0.3 µM | bioavailability [2, 7]: 88.1% | half-life [2, 7]: 15.2 h | AUC(0-inf) [2, 8]: 8.28 µM·h | AUC(0-t) [2, 8]: 7.48 µM·h | Cmax [2, 8]: 0.603 µM | bioavailability [2, 8]: 96.4% | half-life [2, 8]: 17 h | AUC(0-inf) [2, 9]: 7.08 µM·h | AUC(0-t) [2, 9]: 6.38 µM·h | Cmax [2, 9]: 0.452 µM | bioavailability [2, 9]: 92.3% | half-life [2, 9]: 16.1 h | Tmax ([2]; plasma, Oral 5.1 mg kg-1, Dog 1): 2 h | IC50 (Dd2 PfATP4 NITD609): 6.8 nM | IC50 (Cpd 4 Unpublished Target): 8.2 nM | Predicted blood CL (Hepatocyte Clint, rat): 26 % LBF | Predicted blood CL (Hepatocyte Clint, rat; IVIVC from hepatocyte Clint): 18.8 mL/min/kg | hepatocyte CLint (Hepatocyte Clint, rat; rat, hepatocytes): 11.3 µL/min/1e6 cells | B:P ratio (Blood-plasma ratio, rat): 1.65 | B:P ratio [3]: 1.3 | IC50 (Dd2-6R F2 C5): 70.1 nM | log kill in PRR assay (Pf 3D7A): > 4 log
